Source: paper PMC11397024, “Strategic Fluorination to Achieve a Potent, Selective, Metabolically Stable, and Orally Bioavailable Inhibitor of CSNK2” (Molecules, 2024)

Experiments:
Experiment in all cases: NanoBRET K192
Assay type in all cases: cell-based
Conditions in all cases: HEK293
BMP2K = biological target: T1, BMP2K (Homo sapiens, UniProt Q9NSY1)
T1 construct: purchased Promega (NanoBRET Target Engagement K192 Kinase Selectivity System)
Outline: (§1)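 HEK293 cells were transfected overnight with NanoLuc–kinase fusion vectors, then treated for 2 h at 37 °C with compound (added as 100 μM working solution) plus K10 tracer. BRET was read at 450/610 nm after substrate and extracellular inhibitor, and fractional occupancy was calculated against no-compound controls.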

BRSK1 = biological target: T2, BRSK1 (Homo sapiens, UniProt Q8TDC3)
T2 construct: purchased Promega (NanoBRET Target Engagement K192 Kinase Selectivity System)
Outline: as §1

CDK7 + pMB = biological target: T3, CDK7 + pMB (Homo sapiens, UniProt P50613)
T3 construct: purchased Promega (NanoBRET Target Engagement K192 Kinase Selectivity System)
Outline: as §1

CDKL2 = biological target: T4, CDKL2 (Homo sapiens, UniProt Q92772)
T4 construct: purchased Promega (NanoBRET Target Engagement K192 Kinase Selectivity System)
Outline: as §1

CDKL3 = biological target: T5, CDKL3 (Homo sapiens, UniProt Q8IVW4)
T5 construct: purchased Promega (NanoBRET Target Engagement K192 Kinase Selectivity System)
Outline: as §1

CHEK2 = biological target: T6, CHEK2 (Homo sapiens, UniProt O96017)
T6 construct: purchased Promega (NanoBRET Target Engagement K192 Kinase Selectivity System)
Outline: as §1

CSNK1A1L = biological target: T7, CSNK1A1L (Homo sapiens, UniProt Q8N752)
T7 construct: purchased Promega (NanoBRET Target Engagement K192 Kinase Selectivity System)
Outline: as §1

EPHA7 = biological target: T8, EPHA7 (Homo sapiens, UniProt Q15375)
T8 construct: host or cells: HEK293
Outline: as §1

EPHB4 = biological target: T9, EPHB4 (Homo sapiens, UniProt P54760)
T9 construct: purchased Promega (NanoBRET Target Engagement K192 Kinase Selectivity System)
Outline: as §1

FGFR3 = biological target: T10, FGFR3 (Homo sapiens, UniProt P22607)
T10 construct: purchased Promega (NanoBRET Target Engagement K192 Kinase Selectivity System)
Outline: as §1

ICK = biological target: T11, ICK (Homo sapiens, UniProt Q9UPZ9)
T11 construct: host or cells: HEK293
Outline: as §1

IRAK3 = biological target: T12, IRAK3 (Homo sapiens, UniProt Q9Y616)
T12 construct: purchased Promega (NanoBRET Target Engagement K192 Kinase Selectivity System)
Outline: as §1

MAP3K4 = biological target: T13, MAP3K4 (Homo sapiens, UniProt Q9Y6R4)
T13 construct: purchased Promega (NanoBRET Target Engagement K192 Kinase Selectivity System)
Outline: as §1

MAPK11 = biological target: T14, MAPK11 (Homo sapiens, UniProt Q15759)
T14 construct: purchased Promega (NanoBRET Target Engagement K192 Kinase Selectivity System)
Outline: as §1

MAPK6 = biological target: T15, MAPK6 (Homo sapiens, UniProt Q16659)
T15 construct: purchased Promega (NanoBRET Target Engagement K192 Kinase Selectivity System)
Outline: as §1

MAPK8 = biological target: T16, MAPK8 (Homo sapiens, UniProt P45983)
T16 construct: purchased Promega (NanoBRET Target Engagement K192 Kinase Selectivity System)
Outline: as §1

MKNK2 = biological target: T17, MKNK2 (Homo sapiens, UniProt Q9HBH9)
T17 construct: purchased Promega (NanoBRET Target Engagement K192 Kinase Selectivity System)
Outline: as §1

NEK4 = biological target: T18, NEK4 (Homo sapiens, UniProt P51957)
T18 construct: purchased Promega (NanoBRET Target Engagement K192 Kinase Selectivity System)
Outline: as §1

PRKACA = biological target: T19, PRKACA (Homo sapiens, UniProt P17612)
T19 construct: purchased Promega (NanoBRET Target Engagement K192 Kinase Selectivity System)
Outline: as §1

PRKACB = biological target: T20, PRKACB (Homo sapiens, UniProt P22694)
T20 construct: purchased Promega (NanoBRET Target Engagement K192 Kinase Selectivity System)
Outline: as §1

PRKX = biological target: T21, PRKX (Homo sapiens, UniProt P51817)
T21 construct: purchased Promega (NanoBRET Target Engagement K192 Kinase Selectivity System)
Outline: as §1

SBK3 = biological target: T22, SBK3 (Homo sapiens, UniProt P0C264)
T22 construct: purchased Promega (NanoBRET Target Engagement K192 Kinase Selectivity System)
Outline: as §1

SIK1 = biological target: T23, SIK1 (Homo sapiens, UniProt P57059)
T23 construct: purchased Promega (NanoBRET Target Engagement K192 Kinase Selectivity System)
Outline: as §1

SLK = biological target: T24, SLK (Homo sapiens, UniProt Q9H2G2)
T24 construct: purchased Promega (NanoBRET Target Engagement K192 Kinase Selectivity System)
Outline: as §1

SNRK = biological target: T25, SNRK (Homo sapiens, UniProt Q9NRH2)
T25 construct: host or cells: HEK293
Outline: as §1

SRMS = biological target: T26, SRMS (Homo sapiens, UniProt Q9H3Y6)
T26 construct: purchased Promega (NanoBRET Target Engagement K192 Kinase Selectivity System)
Outline: as §1

STK11 = biological target: T27, STK11 (Homo sapiens, UniProt Q15831)
T27 construct: purchased Promega (NanoBRET Target Engagement K192 Kinase Selectivity System)
Outline: as §1

TNK2 = biological target: T28, TNK2 (Homo sapiens, UniProt Q07912)
T28 construct: purchased Promega (NanoBRET Target Engagement K192 Kinase Selectivity System)
Outline: as §1

T22 sequence (P0C264 whole entry): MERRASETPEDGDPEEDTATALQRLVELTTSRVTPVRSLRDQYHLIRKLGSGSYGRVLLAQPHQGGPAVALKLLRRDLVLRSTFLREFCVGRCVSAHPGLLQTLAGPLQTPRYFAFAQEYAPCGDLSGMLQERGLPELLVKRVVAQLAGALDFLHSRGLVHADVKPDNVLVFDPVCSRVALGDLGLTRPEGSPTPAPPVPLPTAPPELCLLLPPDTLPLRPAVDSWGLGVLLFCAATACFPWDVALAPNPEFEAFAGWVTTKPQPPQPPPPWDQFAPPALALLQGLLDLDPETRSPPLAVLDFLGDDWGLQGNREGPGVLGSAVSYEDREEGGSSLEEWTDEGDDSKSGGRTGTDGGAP
T7 sequence (Q8N752 whole entry): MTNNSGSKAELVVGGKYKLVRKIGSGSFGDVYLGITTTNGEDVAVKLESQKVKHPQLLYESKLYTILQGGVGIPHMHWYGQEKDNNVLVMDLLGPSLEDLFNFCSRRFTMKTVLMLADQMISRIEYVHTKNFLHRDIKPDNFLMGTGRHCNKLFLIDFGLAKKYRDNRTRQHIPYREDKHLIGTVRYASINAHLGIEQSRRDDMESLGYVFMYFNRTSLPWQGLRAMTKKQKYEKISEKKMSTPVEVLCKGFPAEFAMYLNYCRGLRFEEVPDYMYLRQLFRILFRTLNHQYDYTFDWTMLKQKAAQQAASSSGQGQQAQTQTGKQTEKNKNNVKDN
T10 sequence (P22607 23-806): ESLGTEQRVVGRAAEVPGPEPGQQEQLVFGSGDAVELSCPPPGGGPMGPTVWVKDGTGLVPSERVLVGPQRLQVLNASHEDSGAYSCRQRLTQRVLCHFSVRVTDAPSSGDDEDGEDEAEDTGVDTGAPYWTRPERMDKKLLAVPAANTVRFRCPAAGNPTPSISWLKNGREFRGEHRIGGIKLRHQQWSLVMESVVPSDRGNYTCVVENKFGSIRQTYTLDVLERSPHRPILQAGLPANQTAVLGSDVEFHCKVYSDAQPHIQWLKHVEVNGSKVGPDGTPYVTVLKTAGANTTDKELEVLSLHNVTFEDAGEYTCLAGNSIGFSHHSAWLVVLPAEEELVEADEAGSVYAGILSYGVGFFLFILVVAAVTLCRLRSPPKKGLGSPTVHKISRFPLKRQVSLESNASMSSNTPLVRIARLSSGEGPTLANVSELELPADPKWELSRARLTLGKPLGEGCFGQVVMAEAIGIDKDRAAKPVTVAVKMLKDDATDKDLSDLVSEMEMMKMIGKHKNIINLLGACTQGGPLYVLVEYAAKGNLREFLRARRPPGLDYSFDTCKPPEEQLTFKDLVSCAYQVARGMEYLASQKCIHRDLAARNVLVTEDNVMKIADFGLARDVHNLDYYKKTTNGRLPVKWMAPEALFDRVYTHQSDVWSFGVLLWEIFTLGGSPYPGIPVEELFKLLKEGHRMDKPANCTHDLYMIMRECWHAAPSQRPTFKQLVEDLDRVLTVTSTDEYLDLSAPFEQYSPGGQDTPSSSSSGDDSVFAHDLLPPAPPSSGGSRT
T23 sequence (P57059 whole entry): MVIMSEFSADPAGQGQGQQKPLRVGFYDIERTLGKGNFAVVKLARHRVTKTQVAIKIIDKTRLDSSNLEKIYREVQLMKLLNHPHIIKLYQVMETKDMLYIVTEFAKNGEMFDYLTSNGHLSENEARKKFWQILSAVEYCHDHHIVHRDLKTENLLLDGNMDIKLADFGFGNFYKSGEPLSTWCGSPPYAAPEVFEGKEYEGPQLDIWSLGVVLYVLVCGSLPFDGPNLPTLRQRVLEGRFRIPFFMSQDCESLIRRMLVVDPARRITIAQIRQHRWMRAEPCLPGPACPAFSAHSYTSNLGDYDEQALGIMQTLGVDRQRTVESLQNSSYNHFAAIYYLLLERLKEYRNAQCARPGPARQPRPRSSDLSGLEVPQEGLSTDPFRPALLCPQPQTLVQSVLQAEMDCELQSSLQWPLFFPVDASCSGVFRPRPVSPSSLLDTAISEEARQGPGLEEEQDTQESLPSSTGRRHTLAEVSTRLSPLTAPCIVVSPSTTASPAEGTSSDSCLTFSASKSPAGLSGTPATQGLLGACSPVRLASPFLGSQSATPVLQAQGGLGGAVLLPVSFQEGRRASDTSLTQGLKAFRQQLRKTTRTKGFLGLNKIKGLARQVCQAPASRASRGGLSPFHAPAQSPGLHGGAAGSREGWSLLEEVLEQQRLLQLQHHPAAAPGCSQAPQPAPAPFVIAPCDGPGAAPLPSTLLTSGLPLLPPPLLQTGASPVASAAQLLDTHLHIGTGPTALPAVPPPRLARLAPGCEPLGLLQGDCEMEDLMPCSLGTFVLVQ
T14 sequence (Q15759 whole entry): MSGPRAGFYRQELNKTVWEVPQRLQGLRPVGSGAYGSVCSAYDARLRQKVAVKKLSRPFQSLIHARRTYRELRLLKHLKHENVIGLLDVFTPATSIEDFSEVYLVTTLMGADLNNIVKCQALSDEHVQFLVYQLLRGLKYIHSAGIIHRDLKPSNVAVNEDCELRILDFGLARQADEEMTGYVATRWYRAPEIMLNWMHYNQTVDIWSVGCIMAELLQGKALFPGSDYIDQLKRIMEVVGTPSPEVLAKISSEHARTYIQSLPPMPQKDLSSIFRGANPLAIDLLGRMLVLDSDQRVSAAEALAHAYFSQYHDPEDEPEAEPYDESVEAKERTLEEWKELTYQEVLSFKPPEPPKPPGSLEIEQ
T17 sequence (Q9HBH9 whole entry): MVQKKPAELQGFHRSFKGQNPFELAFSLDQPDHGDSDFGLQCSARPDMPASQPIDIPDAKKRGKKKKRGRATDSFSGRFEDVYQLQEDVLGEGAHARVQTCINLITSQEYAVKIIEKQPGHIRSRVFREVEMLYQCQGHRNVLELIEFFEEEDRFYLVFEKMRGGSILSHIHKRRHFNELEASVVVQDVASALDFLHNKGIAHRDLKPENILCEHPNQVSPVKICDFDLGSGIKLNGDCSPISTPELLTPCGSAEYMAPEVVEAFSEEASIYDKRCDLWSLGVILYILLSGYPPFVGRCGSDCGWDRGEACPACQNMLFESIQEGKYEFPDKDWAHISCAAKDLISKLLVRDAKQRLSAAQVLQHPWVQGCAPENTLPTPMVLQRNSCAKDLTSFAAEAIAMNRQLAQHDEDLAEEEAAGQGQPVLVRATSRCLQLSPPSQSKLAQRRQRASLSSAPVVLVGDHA
T24 sequence (Q9H2G2 whole entry): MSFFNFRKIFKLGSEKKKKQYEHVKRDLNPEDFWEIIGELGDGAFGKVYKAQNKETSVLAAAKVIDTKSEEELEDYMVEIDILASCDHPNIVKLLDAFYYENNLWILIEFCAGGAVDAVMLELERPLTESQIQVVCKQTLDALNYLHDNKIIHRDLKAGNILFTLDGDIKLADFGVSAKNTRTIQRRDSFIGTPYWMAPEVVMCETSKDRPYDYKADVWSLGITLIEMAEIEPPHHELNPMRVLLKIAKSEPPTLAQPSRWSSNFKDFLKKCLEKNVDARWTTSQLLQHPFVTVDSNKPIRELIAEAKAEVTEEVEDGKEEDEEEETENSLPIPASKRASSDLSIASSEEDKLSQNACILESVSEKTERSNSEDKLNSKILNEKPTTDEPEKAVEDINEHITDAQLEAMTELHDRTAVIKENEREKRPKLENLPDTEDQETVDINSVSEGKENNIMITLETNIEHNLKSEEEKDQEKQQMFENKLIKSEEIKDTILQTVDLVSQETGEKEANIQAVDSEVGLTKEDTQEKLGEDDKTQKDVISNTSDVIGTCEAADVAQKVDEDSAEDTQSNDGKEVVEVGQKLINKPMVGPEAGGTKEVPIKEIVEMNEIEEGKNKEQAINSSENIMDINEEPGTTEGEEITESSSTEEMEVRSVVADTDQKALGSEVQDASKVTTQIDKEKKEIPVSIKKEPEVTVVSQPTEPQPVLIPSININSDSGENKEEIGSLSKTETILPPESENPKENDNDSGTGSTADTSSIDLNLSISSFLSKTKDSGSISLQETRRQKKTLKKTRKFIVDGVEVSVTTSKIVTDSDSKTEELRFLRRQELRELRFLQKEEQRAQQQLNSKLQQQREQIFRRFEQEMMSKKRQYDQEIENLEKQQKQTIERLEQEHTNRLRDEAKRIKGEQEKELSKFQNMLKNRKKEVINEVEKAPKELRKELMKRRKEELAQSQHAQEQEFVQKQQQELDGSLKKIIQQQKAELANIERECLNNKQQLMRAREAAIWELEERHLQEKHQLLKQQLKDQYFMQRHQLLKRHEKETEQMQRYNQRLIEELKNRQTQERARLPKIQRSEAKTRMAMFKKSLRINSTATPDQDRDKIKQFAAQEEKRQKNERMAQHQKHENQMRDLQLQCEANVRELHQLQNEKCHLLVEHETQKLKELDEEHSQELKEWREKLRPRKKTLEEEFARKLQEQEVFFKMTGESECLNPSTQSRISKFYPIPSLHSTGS
T16 sequence (P45983 whole entry): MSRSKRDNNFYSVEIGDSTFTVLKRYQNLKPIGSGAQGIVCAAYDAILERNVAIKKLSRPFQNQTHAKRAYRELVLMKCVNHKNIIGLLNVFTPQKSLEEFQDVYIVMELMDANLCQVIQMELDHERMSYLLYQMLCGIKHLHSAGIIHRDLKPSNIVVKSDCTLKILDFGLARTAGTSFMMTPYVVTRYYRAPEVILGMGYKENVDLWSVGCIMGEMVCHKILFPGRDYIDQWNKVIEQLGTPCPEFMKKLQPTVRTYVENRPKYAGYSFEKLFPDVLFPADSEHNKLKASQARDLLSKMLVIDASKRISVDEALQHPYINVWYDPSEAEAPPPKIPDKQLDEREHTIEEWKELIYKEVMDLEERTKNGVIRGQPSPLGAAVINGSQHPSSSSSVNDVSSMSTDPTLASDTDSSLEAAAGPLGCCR

Compound: CCC(=O)Nc1cc(Nc2cc(NC3CC3)n3ncc(C#N)c3n2)c(F)cc1N1CCC[C@H](NC)C1 [Compound 2, (S)-N-(5-((3-cyano-7-(cyclopropylamino)pyrazolo[1,5-a]pyrimidin-5-yl)amino)-4-fluoro-2-(3-(methylamino)piperidin-1-yl)phenyl)propionamide]
- receptor occupancy at 10 µM (BMP2K): 7.6%
- receptor occupancy at 10 µM (BRSK1): 17.7%
- receptor occupancy at 10 µM (CDK7 + pMB): 43.9%
- receptor occupancy at 10 µM (CDKL2): 13.6%
- receptor occupancy at 10 µM (CDKL3): 19.4%
- receptor occupancy at 10 µM (CHEK2): -0.8%
- receptor occupancy at 10 µM (CSNK1A1L): 1.5%
- receptor occupancy at 10 µM (EPHA7): -2.5%
- receptor occupancy at 10 µM (EPHB4): 4.4%
- receptor occupancy at 10 µM (FGFR3): -0.7%
- receptor occupancy at 10 µM (ICK): -6.1%
- receptor occupancy at 10 µM (IRAK3): 2.4%
- receptor occupancy at 10 µM (MAP3K4): 4.9%
- receptor occupancy at 10 µM (MAPK11): 9.4%
- receptor occupancy at 10 µM (MAPK6): 14.6%
- receptor occupancy at 10 µM (MAPK8): 0.6%
- receptor occupancy at 10 µM (MKNK2): 23.6%
- receptor occupancy at 10 µM (NEK4): 7.8%
- receptor occupancy at 10 µM (PRKACA): 11.7%
- receptor occupancy at 10 µM (PRKACB): 9.2%
- receptor occupancy at 10 µM (PRKX): 10.6%
- receptor occupancy at 10 µM (SBK3): 15.9%
- receptor occupancy at 10 µM (SIK1): 6.4%
- receptor occupancy at 10 µM (SLK): 6.6%
- receptor occupancy at 10 µM (SNRK): -2%
- receptor occupancy at 10 µM (SRMS): 7.4%
- receptor occupancy at 10 µM (STK11): 0.1%
- receptor occupancy at 10 µM (TNK2): 12.5%
